Source: US9629822B2, “Flavonoid based antiviral targets” (UNIVERSITY OF CENTRAL FLORIDA RESEARCH FOUNDATION, INC., priority 2012, dated 2017)
Like-named read-outs stand apart in the source and are kept apart here.

Tests used:
US28 receptor = target: T1, US28 receptor (Human cytomegalovirus, UniProt P69332); assay: PathDetect trans Elk1 luciferase reporter gene assay in US28-transfected 293T HEK cells; format: cell-based, Human Cytomegalovirus (HCMV); conditions: for EC50: 293T HEK cells transiently expressing US28, Elk1 reporter; for Efficacy(%): maximum intrinsic activity from dose-response curve; for Efficacy(%) / Emax: negative = inverse agonism; for Emax: read-out: Efficacy(%), maximum intrinsic activity from dose-response curve; for type of activity on the US28 receptor (agonist / inverse agonist / none), in words: Elk1 reporter, US28-transfected HEK cells
T1 construct: expressed in transfected cells; host or cells: HEK 293T cells, transiently transfected
Source text: Having generated a homologous series of chalcones and flavones, their ability to interact with the US28 receptor in human embryonic kidney (HEK) cells was investigated using an Elk-1 gene reporter assay (FIG. 2). HEK cells were transfected with either an empty vector (i.e., mock cells) or with a vector carrying US 28. These matched HEK cells provided a means to evaluate off-target effects as well as innate drug toxicity. As many of the flavonoid drugs were not water-soluble, all drug stock solutions were made in 100% dimethylsulfoxide (DMSO). The final DMSO concentration for each cell-based experiment, however, was 1% DMSO. To account for the presence of DMSO, 1% DMSO controls were run in parallel. […] values of the homologous series were also determined in Chinese hamster ovary (CHO) cells in order to assess the relative toxicities of each member of the series in a different cell line (see Table 1).
Interaction with the US28 receptor was measured by a decrease in luminescence using a firefly (Photinus pyralis) luciferase-based PathDetect Elk1 gene reporter assay (FIG. 2).^23,24 This assay assessed the modulation of US28-mediated activation of mitogen-activated protein kinase (MAPK) signaling pathways (results are shown in Table 1). […] Such compounds which reduce MAPK signaling will have direct utility in the treatment of proliferative disorders including but not limited cancer.
After transfection the US28 is expressed and activates MAPK. The MAPK phosphorylates the activator domain of the GAL4dbd/Elk1 fusion protein, and causes its dimerization. The dimer then binds to the GAL4 UAS region of the reporter gene and allows for luciferase transcription. The luciferase mRNA is then translated and the luciferase protein is detected via luminescence by the use of the Bright-Glo reagent.
(§1) The efficacy of each compound on the US28 receptor was investigated in luciferase based reporter gene assay PathDetect trans Elk1 (Agilent, Stratagene)^23 as described previously.^13 Briefly, the human embryonic kidney (HEK) 293T cells were transiently-transfected with 0.1 μg Elk1, 5 μg Luc, and 5 μg of US28 vector or empty pcDNA3 vector (mock cells). Five hours after transfection, the cells were washed with DMEM containing 1% FBS, harvested, seeded in a white half-area 96-well plate (20,000 cells/well) and incubated with the indicated concentrations of test compounds. The incubation buffer consisted of DMEM, 1% FBS, 2 mM L-glutamine, 1% penicillin-streptomycin and 1% DMSO. The cells were incubated at 37° C. in the humid atmosphere with 5% CO2 for an additional 20-24 hours. The luciferase substrate BrightGlo (Promega) was used according to the manufacturer's instruction. The luminescence intensity was acquired using microplate reader Victor3V (Perkin-Elmer). The basal luminescence of mock transfected cells was approximately 500 RLU and the basal luminescence of US28-transfected cells was 4-5-fold higher (2000-2500 RLU). As the inhibitors gave differential responses in terms of their ability to reduce US 28 mediated signaling, their relative EC50 values were determined by dosing the US-28 transfected HEK cells with increasing concentrations of each compound. In this case, the EC50 value is the concentration of the compound needed to provoke a response halfway between the compound's maximal response (change in luminescence) and the no-compound control in the same US-28 transfected cell line. A plot of relative luminescence versus log of the compound concentration provided a dose-response curve from which the % efficacy was derived via non-linear regression methods using the algorithms in PRISM 5.0 (GraphPad Software, San Diego, Calif.).

CHO cells = assay: CHO cell toxicity, MTS assay, 48 h; format: cell-based, Chinese hamster; conditions: Cricetulus griseus, CHO, 37° C., MTS reagent, read-out: CHO 48 h IC50 value
Procedure: In each case, the chalcone system 8 was more toxic than the corresponding ring-closed system, 9.
The CHO assay was conducted to assess the general toxicity of each flavonoid drug. Briefly, cell growth was assayed in sterile 96-well microtiter plates (Costar 3599, Corning, N.Y., USA) in the presence of each drug. Experiments were conducted in triplicate. CHO cells were plated at 10,000 cells/mL. Drug solutions were prepared in 100% DMSO and dosed so that the final DMSO concentration was <1%. For example, 1 μL of drug solution was added to the CHO cells plated in each well in 100 μL of media. Drug additions occurred after an initial overnight incubation of CHO cells in each well. After drug was added, the cells were incubated in 5% CO2 for 48 h at 37° C. The MTS reagent (Promega Cell Titer 96 Aqueous non-radioactive cell proliferation reagent) was added (20 μL) and the CHO cells were incubated for an additional 4h and then absorbance at 490 nm was measured on a BioTek Synergy MX plate reader. […] IC50 values were determined from the corresponding plot of relative absorbance at 490 nm vs drug concentration.

[1] = TZMbI assay for cell safety (cell viability and growth, CytoTox Glo); conditions: human, TZMbI cells, read-out: % decrease in viability compared to 0.1% DMSO vehicle based on viable cell luminescence
Procedure: Assays were performed below in accordance with the procedures set forth in The Journal of Immunology, 2006, 176, pp. 6900-905; AIDS Research and Human Retroviruses, 2004, 20:11, pp. 1157-1665.^32,33 TZMbI assays for cell safety were performed to identify potential anti-viral compounds. TZMbI assays for cell safety were performed to identify potential anti-viral compounds per the methods.

HIV-1 BaL = assay: Anti-HIV assay (luciferase, HIV-1 BaL infection); format: cell-based
Procedure: Assays were performed below in accordance with the procedures set forth in The Journal of Immunology, 2006, 176, pp. 6900-905; AIDS Research and Human Retroviruses, 2004, 20:11, pp. 1157-1665.^32,33 Cells were treated with 2 ng/mL p24 of HIV-1 BaL administered; MOI approx 0.02 (see refs 32, 33). Cells were treated with 2 ng/mL p24 of HIV-1 BaL administered; MOI approx 0.02 (see refs 32, 33).

[2] = system: mock transfected 293T HEK cells; assay: PathDetect Elk1 luminescence in mock transfected (empty pcDNA3 vector) 293T HEK cells, off-target effect; format: cell-based, human; conditions: 10 μM vs 1% DMSO control, Equation 1; for activation at 10 µM: Homo sapiens, read-out: Effect(%) on mock cells with each drug at 10 μM
Procedure: As a control, the empty pcDNA3 plasmid vector and the components of PathDetect system were also used for mock transfection of 293T HEK cells. Controls containing 1% DMSO were run in parallel. The relative luminescence results found with mock transfected 293T HEK cells treated with 10 μM drug and the untreated 1% DMSO control were compared via the following Equation 1. % Effect on mock cells=(100%×(mock cell luminescence/DMSO control luminescence))−100% Equation (1)
This equation was derived in order to assess the net effect each compound had on non-US28 containing HEK cells transfected via the same protocol. These control experiments were critical as they provided a method to address off target effects such as compound toxicity, which could give rise to false positives in the PathDetect assay.
Compounds, which had no off-target effects, gave nearly identical luminescence values in both the mock cells and the 1% DMSO control (i.e., a mock cell luminescence/DMSO control luminescence ratio of 1) and a net effect of 0% via Equation 1 (e.g., 9j: 0% in Table 1). In contrast, compounds that were stimulatory to the treated HEK cells gave higher mock cell luminescence than the DMSO control, a ratio >1, and a net positive value in Equation 1 for the % effect on mock cells (e.g., 8f: 290%). On the other hand, compounds that were intrinsically toxic gave lower luminescence in the treated mock cells than the DMSO control, a ratio below 1, and a net negative value for the % effect on mock cells (e.g., 8d: ˜42%).
as §1

[3] = EC50 (μM), NE = no effect when tested at 10 μM of compound
[4] = 10 μM, Experiment 1B, 2 ng/mL p24 HIV-1 BaL
[5] = Human immunodeficiency virus 1, BAL, 10 μM, Experiment 1B, 2 ng/mL p24 HIV-1 BaL
[6] = NE = no effect when tested at 10 μM of compound

T1 sequence (P69332 whole entry): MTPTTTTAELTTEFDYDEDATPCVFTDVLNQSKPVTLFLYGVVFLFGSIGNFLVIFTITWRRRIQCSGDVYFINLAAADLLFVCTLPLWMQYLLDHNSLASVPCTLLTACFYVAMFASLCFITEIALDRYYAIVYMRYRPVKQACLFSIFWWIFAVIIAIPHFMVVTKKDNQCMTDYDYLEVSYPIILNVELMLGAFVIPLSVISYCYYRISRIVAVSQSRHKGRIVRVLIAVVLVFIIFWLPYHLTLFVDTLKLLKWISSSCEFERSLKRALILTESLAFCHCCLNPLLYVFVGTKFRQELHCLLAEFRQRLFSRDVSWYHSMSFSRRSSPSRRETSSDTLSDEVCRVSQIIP

Compound	EC50 (US28 receptor; [3]) [µM]	Efficacy(%) (US28 receptor)	EC50 (US28 receptor; pEC50 ± SEM) [µM]	Emax (US28 receptor) [%]	IC50 (CHO cells) [µM]	cytotoxicity at 10 μM ([1]; Experiment 1A) [%]	RLU (relative luciferase units) (HIV-1 BaL; [4]) [RLU]	inhibition at 10 µM (HIV-1 BaL; [5]) [%]	melting point [°C]	activation at 10 µM [2] [%]	type of activity on the US28 receptor (agonist / inverse agonist / none), in words (US28 receptor)	EC50 (US28 receptor; [6]) [µM]	further results
COc1cc(Br)cc(/C=C/C(=O)c2ccccc2O)c1OC [Compound 8d, (E)-3-(5-bromo-2,3-dimethoxyphenyl)-1-(2-hydroxyphenyl)prop-2-en-1-one]	6.7	~52	6.61	~52	7.2 ± 0.4	72.9	134.6	85.8	122 to 124	–	–	–	–
COc1ccc(Br)cc1/C=C/C(=O)c1c(O)cccc1OC [Compound 8f, (E)-3-(5-bromo-2-methoxyphenyl)-1-(2-hydroxy-6-methoxyphenyl)prop-2-en-1-one]	6	~95	–	~95	6.1 ± 0.8	91.3	45.9	95.1	–	290	–	–	Effect(%) on mock cells with each drug at 10 μM [2]: 290%
COc1ccc(Cl)cc1/C=C/C(=O)c1ccccc1O [Compound 8h, (E)-3-(5-chloro-2-methoxyphenyl)-1-(2-hydroxyphenyl)prop-2-en-1-one]	7.8	~58	–	~58	8.4 ± 0.6	98.9	33.8	96.4	81 to 82	–	–	–	–
CCOc1ccc(Br)cc1-c1oc2ccccc2c(=O)c1O [Compound 9c, 2-(5-Bromo-2-ethoxyphenyl)-3-hydroxy-4H-chromen-4-one]	0.8	–	0.832	–	13.5 ± 1.3	-8.9	727.6	22.3	149 to 155	–	inhibited US28 activity	–	cytotoxicity at 2.5 μM ([1]; 2.5 μM, Experiment 2A): -6.23%; cytotoxicity at 5 μM ([1]; 5 μM, Experiment 2A): -0.19%; cytotoxicity at 10 μM ([1]; Experiment 2A): 0.1%; cytotoxicity at 20 μM ([1]; 20 μM, Experiment 2A): 14.8%; cytotoxicity at 40 μM ([1]; 40 μM, Experiment 2A): 64.2%; RLU (relative luciferase units) (HIV-1 BaL; 2.5 μM, Experiment 2B): 30.81 RLU; RLU (relative luciferase units) (HIV-1 BaL; 5 μM, Experiment 2B): 33.63 RLU; RLU (relative luciferase units) (HIV-1 BaL; 10 μM, Experiment 2B): 49.29 RLU; RLU (relative luciferase units) (HIV-1 BaL; 20 μM, Experiment 2B): 69.09 RLU; RLU (relative luciferase units) (HIV-1 BaL; 40 μM, Experiment 2B): 88.45 RLU; inhibition at 2.5 µM (HIV-1 BaL; Human immunodeficiency virus 1, BAL, 2.5 μM, Experiment 2B): -6.23%; inhibition at 5 µM (HIV-1 BaL; Human immunodeficiency virus 1, BAL, 5 μM, Experiment 2B): -0.19%; inhibition at 10 µM (HIV-1 BaL; Human immunodeficiency virus 1, BAL, 10 μM, Experiment 2B): 0.1%; inhibition at 20 µM (HIV-1 BaL; Human immunodeficiency virus 1, BAL, 20 μM, Experiment 2B): 14.8%; inhibition at 40 µM (HIV-1 BaL; Human immunodeficiency virus 1, BAL, 40 μM, Experiment 2B): 64.2%
COc1ccccc1-c1cc(=O)c2ccccc2o1 [Compound 11c, 2-(2-Methoxyphenyl)-4H-chromen-4-one]	> 10	–	–	–	64.8 ± 8.1	39.5	235.6	74.8	–	3	inactive ligand	> 10	–
COc1ccc(Br)cc1C1CC(=O)c2ccccc2O1 (centres unmarked) [Compound 13b, 2-(5-Bromo-2-methoxyphenyl)chroman-4-one]	> 10	–	–	–	67.9 ± 9.3	-9.1	884.5	2.8	–	-5	did not have any significant effect	> 10	–
